Key:
[1] = test system: Mouse Neuro2A neuroblastoma cells; assay: Neuro2A cells with neurites after GGTI-298 (Example 16); type: cell-based; conditions: 10 μM, 48 hrs
Protocol: Mouse Neuro2A neuroblastoma cells were cultured in DMEM supplemented with 10% FBS for 24 hrs. […] Then differentiation was induced by retinoic acid in DMEM supplemented with 2% FBS. The cell culture was incubated with a Geranylgeranyl Transferase inhibitor, GGTI-298. […]

Neuro2A cells = Neuro2A cells that extended neurites, with GGTI-298 (Example 18); type: cell-based, mouse; conditions: 0.1-1 μM, vehicle 0.0-0.20
Excerpt: After differentiation was induced, cells that extended neurites were counted.

[2] = test system: Sprague-Dawley rats injected with Kainic acid; assay: Kainic acid induced neurodegeneration and seizure in rats (Example 21); type: in vivo, rat; conditions: oral
Excerpt: Seizure behaviors were observed and scored (Ref. R. J. Racine, Modification of seizure activity by electrical stimulation: II. Motor seizure, Electroencephalogr. Clin. Neurophysiol. 32 (1972) 281-294. Modifications were made for the methods). Brain tissues of rats were sectioned on histology slides, and neurons in hippocampus tissues were stained by Nissl. Neurons damaged by Kainic acid and behavior scores were quantified.

HSP70 [3] = assay: HSP70 expression in Neuro2A cells by western blot; type: cell-based, mouse; conditions: for HSP70 western signal (absence of compounds = 1.00): 48 hours, then GGTI-298
Protocol: Differentiation was induced and cells incubated with geranylgeranyl transferase I inhibitor, GGTI-298. Cells were harvested and lysates were prepared and analyzed by western blot for HSP70 and HSP90. Western signals in the absence of the compounds were normalized as 1.00.

[4] = test system: Murine neuro2A neuroblastoma cells; assay: Neurite outgrowth of neuro2A cells inhibited with GGTI-298 (Example 30); type: cell-based, mouse; conditions: for Median Counts of cells with neurite outgrowth: CNS-102 vs CNS-103 experiment (no inhibition 60.3, PBS 18.5); for Relative %: relative to uninhibited count
Protocol: Differentiation was induced and cells incubated with geranylgeranyl transferase I inhibitor, GGTI-298. After 24 h digital images were taken and neurite outgrowth was quantified. The comparisons of the neuroprotective effect of these three compounds are shown below.
The estimated mean log10 counts, from five replicate wells for each treatment group were calculated by PROC GLM in SAS assuming a pooled estimate of variation.
The estimated mean log10 counts from five replicate wells for each treatment group were calculated by PROC GLM in SAS assuming a pooled estimate of variation.
Differences in mean log(counts) between treatments for each concentration were calculated using PROC GLM in SAS. The p-value given is for the comparison of the estimated difference to zero, the expected difference value for no treatment effect. The anti-log of the differences represent the estimated ratio of counts (relative effect on inhibition) and are tabulated below along with the lower and upper 95% confidence intervals.

Rap1 = assay: Prenylation of Rap1 in Neuro2A cells with GGTI-298 (western blot); type: cell-based, mouse; conditions: 100 nM; percentage of control treatments (GGTI only)
Protocol: Mouse neuroblastoma Neuro2A cells were cultured in DMEM supplemented with 10% FBS for 24 hrs. The cells were treated with 102GGA derivative compounds for 24 hrs first before GGTase inhibitor GGTI-298 was added to the culture medium for additional 24 hr incubation. […] Both un-prenylated and total Rap1 protein bands were quantified using Image J and normalized to their respective loading control GAPDH. The results for control and each compound treatment were calculated as the ratio of normalized un-prenylated Rap1 to total Rap1, and averaged from two biological repeats of one experiment. The final results were presented as a percentage of the control treatments (GGTI only) from the same batch experiment. The data shown in the chart were averaged from two repeats of one experiment and presented as the ratio of normalized un-prenylated Rap1 to total Rap1. Compound ID numbers in table refer to structures in Table 1 and Table 2.

HSP70 [5] = assay: HSP70 levels in Neuro 2A cells by ELISA; type: cell-based, mouse; conditions: 10 uM compound for 48 hrs, then GGTI-298 24 hrs
Protocol: Mouse neuroblastoma 2a cells were cultured in DMEM with 10% FBS for 24 hrs. […] After 24 hrs cells were harvested and lysates were prepared and analyzed by ELISA for HSP70. Compound ID numbers in table refer to structures in Table 1 and Table 2.

[6] = test system: Neuro2A cells treated with A-beta (O); assay: Rescue of amyloid-beta oligomer induced cytotoxicity in Neuro 2A cells (CellTiter-Glo); type: cell-based; conditions: Mus musculus, N2a, compound 1 uM, A-beta (O) together with compound 48 hr, read-out: % viability vs. untreated
Protocol: Preparation of amyloid-beta oligomer (A-beta (O)): Synthetic wild type A-beta (1-42) was purchased from American Peptide, and first dissolved with hexafluoroisopropanol (HFIP), then dried in the blowing tissue culture hood overnight to form a film in the eppendorf tube. The A-beta peptide film was first resuspended with DMSO to a concentration of 5 mM, further diluted with DMEM containing N2 supplement (Invitrogen) to achieve a concentration of 100 μM, and then sonicated in room temperature water bath for 10 minutes. The 100 μM peptide solution was then incubated at 4° C. for 24 hr and thoroughly vortexed before applied to cells.
Mouse neuroblastoma Neuro2A cells were plated in 96-well plates and cultured in DMEM supplemented with 10% FBS for 24 hr. […] At the end of incubation, cells were harvested and subjected to viability assay using CellTiter-Glo Luminescent Cell Viability Assay Kit (Promega). The data for each treatment was calculated as average of 4 replicates and normalized to that of A-beta (O) treated only. Compound ID numbers in table refer to structures in Table 1 and Table 2.

[7] = 10000 nM, CNS-102 vs CNS-103 experiment

`CC(=O)CC/C=C(/C)CC/C=C(\C)CC/C=C(\C)CCC=C(C)C` [CNS-103] was tested, and the “Mean of cell numbers (Arbitrary units)” value [1] was 0.195 Arbitrary units, the “Mean of cell numbers (Arbitrary units)” value (Neuro2A cells) was 0.20-0.45 Arbitrary units and the “Mean of Hippocampus CA3 neurons damaged (Arbitrary units)” value ([2]; 12 mg/Kg rat) was 8.16 Arbitrary units. For the same molecule, the “Mean of Hippocampus CA3 neurons damaged (Arbitrary units)” value ([2]; 25 mg/Kg rat) was 10.64 Arbitrary units, the “HSP70 western signal (absence of compounds = 1.00)” value (HSP70 [3]; 100 nM) was 1.00 and the “HSP70 western signal (absence of compounds = 1.00)” value (HSP70 [3]; 10 μM) was 0.99. The “induction of HSP70 expression (in words)” value (HSP70 [3]; Neuro2A cells, western blot) was “failed to induce expression of HSP70”, the “Median Counts of cells with neurite outgrowth” value (“Median Counts of cells” below) ([4]; 10 nM) was 26.7 and the Relative % ([4]; 10 nM, CNS-102 vs CNS-103 experiment) was 44.3%. The “Median Counts of cells” value ([4]; 100 nM) was 29.3, the Relative % ([4]; 100 nM, CNS-102 vs CNS-103 experiment) was 48.6% and the “Median Counts of cells” value ([4]; 1000 nM) was 28.7. The Relative % ([4]; 1000 nM, CNS-102 vs CNS-103 experiment) was 47.6%, the Protection % [4, 7] was −5.3% and the “Median Counts of cells” value ([4]; 10000 nM) was 16.3. For the same molecule, the Relative % [4, 7] was 27%, the maximum protection ([4]; CNS-102 vs CNS-103 experiment, FIG. 4B) was roughly 26% and the “unprenylated/total RAP1 (%)” value (Rap1) was 96%.
In the case of `CC(C)=CCC/C(C)=C/CC/C(C)=C/COC(=S)NC1CC1` [Compound 9d, Cyclopropyl 2E, 6E-farnesyl thiocarbamate], the “HSP70 ELISA signal (absence of compound normalized as 1.00)” value (HSP70 [5]) is reported as 0.95.
`CCC(=O)CC/C=C(\C)CC/C=C(\C)CCC=C(C)C` [Compound 102] showed a viability at 1 µM [6] of 140%.
Molecule `CC(C)=CCC/C(C)=C/CC/C(C)=C/CC/C(C)=C/CCC(C)=NO` [Compound 103] has a viability at 1 µM [6] of 128%.

Reference: US9045403B2 (Coyote Pharmaceuticals, Inc., priority 2012, dated 2015)
